# Assay results reported in the supplement of paper PMC10307832.
# Experiments:
# Experiment in all cases: relative viability (nuclei count vs DMSO), 5 days (fraction); higher = more cells survive
# UMC-11 = tested on: UMC-11
# Procedure, shortened: (§1)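 Relative viability equals treated-well nuclei counts divided by vehicle-well nuclei counts. Counts came from 4× images of lung cancer cell lines grown in 1536-well plates for 5 days after pin-tool dosing on the day after seeding. Dosing used one drug alone or a fixed anchor-drug dose plus five library-drug doses (not always all listed) in √10 steps, and values are medians of duplicate plates.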
# SW 1573 = tested on: SW 1573
# Procedure, shortened: as §1
# NCI-H2009 = tested on: NCI-H2009
# Procedure, shortened: as §1
# A-427 = tested on: A-427
# Procedure, shortened: as §1
# NCI-H1793 = tested on: NCI-H1793
# Procedure, shortened: as §1
# NCI-H1944 = tested on: NCI-H1944
# Procedure, shortened: as §1
# NCI-H1915 = tested on: NCI-H1915
# Procedure, shortened: as §1
# EPLC-272H = tested on: EPLC-272H
# Procedure, shortened: as §1
# NCI-H358 = tested on: NCI-H358
# Procedure, shortened: as §1
# ABC-1 = tested on: ABC-1
# Procedure, shortened: as §1
# NCI-H2023 = tested on: NCI-H2023
# Procedure, shortened: as §1
# HCC-15 = tested on: HCC-15
# Procedure, shortened: as §1
# RERF-LC-KJ = tested on: RERF-LC-KJ
# Procedure, shortened: as §1
# NCI-H322M = tested on: NCI-H322M
# Procedure, shortened: as §1
# NCI-H838 = tested on: NCI-H838
# Procedure, shortened: as §1
# NCI-H441 = tested on: NCI-H441
# Procedure, shortened: as §1
# NCI-H1734 = tested on: NCI-H1734
# Procedure, shortened: as §1
# NCI-H647 = tested on: NCI-H647
# Procedure, shortened: as §1
# LK-2 = tested on: LK-2
# Procedure, shortened: as §1
# LC-2-ad = tested on: LC-2-ad
# Procedure, shortened: as §1
# NCI-H2347 = tested on: NCI-H2347
# Procedure, shortened: as §1
structure (smiles),measurement,setting,value
CN1CCN(CCOc2cc(OC3CCOCC3)c3c(Nc4c(Cl)ccc5c4OCO5)ncnc3c2)CC1 [Saracatinib] + Cc1nc(NC(=O)N2CCC[C@H]2C(N)=O)sc1-c1ccnc(C(C)(C)C(F)(F)F)c1 [Alpelisib] (partner 2 µM),relative viability,UMC-11; first compound 0.02 µM,0.99
same,relative viability,UMC-11; first compound 0.6325 µM,1.03
same,relative viability,UMC-11; first compound 2 µM,0.768
same,relative viability,SW 1573; first compound 0.02 µM,0.83
same,relative viability,SW 1573; first compound 0.2 µM,0.689
same,relative viability,SW 1573; first compound 0.6325 µM,0.833
same,relative viability,SW 1573; first compound 2 µM,0.51
same,relative viability,NCI-H2009; first compound 0.02 µM,1.16
same,relative viability,NCI-H2009; first compound 0.2 µM,1.14
same,relative viability,NCI-H2009; first compound 0.6325 µM,1.01
same,relative viability,NCI-H2009; first compound 2 µM,0.961
same,relative viability,A-427; first compound 0.02 µM,1.09
same,relative viability,A-427; first compound 0.2 µM,0.916
same,relative viability,A-427; first compound 0.6325 µM,1.07
same,relative viability,A-427; first compound 2 µM,1.01
same,relative viability,NCI-H1793; first compound 0.02 µM,0.722
same,relative viability,NCI-H1793; first compound 0.2 µM,0.75
same,relative viability,NCI-H1793; first compound 0.6325 µM,0.793
same,relative viability,NCI-H1793; first compound 2 µM,0.74
same,relative viability,NCI-H1944; first compound 0.02 µM,0.847
same,relative viability,NCI-H1944; first compound 0.6325 µM,0.808
same,relative viability,NCI-H1944; first compound 2 µM,0.524
same,relative viability,NCI-H1915; first compound 0.02 µM,1.04
same,relative viability,NCI-H1915; first compound 0.2 µM,0.552
same,relative viability,NCI-H1915; first compound 0.6325 µM,1.07
same,relative viability,NCI-H1915; first compound 2 µM,1.01
same,relative viability,EPLC-272H; first compound 0.02 µM,1.03
same,relative viability,EPLC-272H; first compound 0.2 µM,0.732
same,relative viability,EPLC-272H; first compound 0.6325 µM,0.942
same,relative viability,EPLC-272H; first compound 2 µM,0.821
same,relative viability,NCI-H358; first compound 0.02 µM,0.839
same,relative viability,NCI-H358; first compound 0.2 µM,0.881
same,relative viability,NCI-H358; first compound 0.6325 µM,0.514
same,relative viability,NCI-H358; first compound 2 µM,0.448
same,relative viability,ABC-1; first compound 0.02 µM,0.854
same,relative viability,ABC-1; first compound 0.2 µM,1.06
same,relative viability,ABC-1; first compound 0.6325 µM,0.981
same,relative viability,ABC-1; first compound 2 µM,0.857
same,relative viability,NCI-H2023; first compound 0.02 µM,0.62
same,relative viability,NCI-H2023; first compound 0.2 µM,0.409
same,relative viability,NCI-H2023; first compound 0.6325 µM,0.485
same,relative viability,NCI-H2023; first compound 2 µM,0.364
same,relative viability,HCC-15; first compound 0.02 µM,0.889
same,relative viability,HCC-15; first compound 0.2 µM,0.641
same,relative viability,HCC-15; first compound 0.6325 µM,0.808
same,relative viability,HCC-15; first compound 2 µM,0.759
same,relative viability,RERF-LC-KJ; first compound 0.02 µM,0.894
same,relative viability,RERF-LC-KJ; first compound 0.2 µM,0.954
same,relative viability,RERF-LC-KJ; first compound 0.6325 µM,0.831
same,relative viability,RERF-LC-KJ; first compound 2 µM,0.662
same,relative viability,NCI-H322M; first compound 0.02 µM,0.761
same,relative viability,NCI-H322M; first compound 0.2 µM,0.876
same,relative viability,NCI-H322M; first compound 0.6325 µM,0.822
same,relative viability,NCI-H322M; first compound 2 µM,0.639
same,relative viability,NCI-H838; first compound 0.02 µM,0.993
same,relative viability,NCI-H838; first compound 0.2 µM,0.929
same,relative viability,NCI-H838; first compound 0.6325 µM,0.771
same,relative viability,NCI-H838; first compound 2 µM,0.803
same,relative viability,NCI-H441; first compound 0.02 µM,0.715
same,relative viability,NCI-H441; first compound 0.2 µM,0.544
same,relative viability,NCI-H441; first compound 0.6325 µM,1.03
same,relative viability,NCI-H441; first compound 2 µM,0.772
same,relative viability,NCI-H1734; first compound 0.02 µM,0.669
same,relative viability,NCI-H1734; first compound 0.6325 µM,0.646
same,relative viability,NCI-H1734; first compound 2 µM,0.507
same,relative viability,NCI-H647; first compound 0.02 µM,1.09
same,relative viability,NCI-H647; first compound 0.2 µM,0.83
same,relative viability,NCI-H647; first compound 0.6325 µM,0.635
same,relative viability,NCI-H647; first compound 2 µM,0.36
same,relative viability,LK-2; first compound 0.02 µM,0.956
same,relative viability,LK-2; first compound 0.2 µM,0.851
same,relative viability,LK-2; first compound 0.6325 µM,1.02
same,relative viability,LK-2; first compound 2 µM,0.531
same,relative viability,LC-2-ad; first compound 0.02 µM,0.903
same,relative viability,LC-2-ad; first compound 0.6325 µM,0.882
same,relative viability,LC-2-ad; first compound 2 µM,0.691
same,relative viability,NCI-H2347; first compound 0.02 µM,1.03
same,relative viability,NCI-H2347; first compound 0.2 µM,0.835
same,relative viability,NCI-H2347; first compound 0.6325 µM,1.12
same,relative viability,NCI-H2347; first compound 2 µM,0.902
